# According to ChEMBL document CHEMBL1201862, “PubChem BioAssay data set” (2004):
#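 48-hour exposure; five concentrations; linearly interpolated endpoints. GI50 marks 50% less growth.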 Calls of active or inactive are those of the source. Rule as the data show it: active = GI50 up to about 1.1 µM and inactive = higher.
# How the values were obtained:
# Assay in all cases: DTP human tumour cell line panel, 48 h
# COLO 205 = test system: COLO 205
# NCI-H460 = test system: NCI-H460
# HT-29 = test system: HT-29
# RPMI-8226 = test system: RPMI-8226
# ACHN = test system: ACHN
# SW-620 = test system: SW-620
# NCI-H23 = test system: NCI-H23
# OVCAR-4 = test system: OVCAR-4
# OVCAR-5 = test system: OVCAR-5
# NCI/ADR-RES = test system: NCI/ADR-RES
# HCC 2998 = test system: HCC 2998
# SF-539 = test system: SF-539
# NCI-H226 = test system: NCI-H226
# HOP-92 = test system: HOP-92
# 786-0 = test system: 786-0
# OVCAR-3 = test system: OVCAR-3
# UACC-257 = test system: UACC-257
# SK-MEL-5 = test system: SK-MEL-5
# UO-31 = test system: UO-31
# CAKI-1 = test system: CAKI-1
SMILES,GI50 (COLO 205),GI50 (NCI-H460),GI50 (HT-29),GI50 (RPMI-8226),GI50 (ACHN),GI50 (SW-620),GI50 (NCI-H23),GI50 (OVCAR-4),GI50 (OVCAR-5),GI50 (NCI/ADR-RES),GI50 (HCC 2998),GI50 (SF-539),GI50 (NCI-H226),GI50 (HOP-92),GI50 (786-0),GI50 (OVCAR-3),GI50 (UACC-257),GI50 (SK-MEL-5),GI50 (UO-31),GI50 (CAKI-1)
CN(NC(=O)c1ccc(Cl)cc1)C1=NCCCCN1,> 100 µM (inactive),> 100 µM (inactive),> 100 µM (inactive),> 100 µM (inactive),> 100 µM (inactive),> 100 µM (inactive),> 100 µM (inactive),> 100 µM (inactive),> 100 µM (inactive),> 100 µM (inactive),> 100 µM (inactive),> 100 µM (inactive),> 100 µM (inactive),> 100 µM (inactive),> 100 µM (inactive),> 100 µM (inactive),> 100 µM (inactive),> 100 µM (inactive),> 100 µM (inactive),> 100 µM (inactive)
COC1C(O)C(C)OC(O[C@@H]2C[C@H]3CC[C@@H]4[C@H](CC[C@]5(C)[C@@H](C6=CC(=O)OC6)CC[C@]45O)[C@@]3(C)[C@H](O)C2)C1O (some centres not stated),0.191 µM (active),0.0347 µM (active),0.0849 µM (active),0.0512 µM (active),< 0.0212 µM (active),0.0782 µM (active),0.0262 µM (active),0.057 µM (active),0.114 µM (active),< 0.0443 µM (active),0.719 µM (active),< 0.01 µM (active),0.151 µM (active),0.106 µM (active),0.149 µM (active),< 0.0258 µM (active),0.1 µM (active),< 0.0258 µM (active),,0.0225 µM (active)
Cc1ccc(SCC(CF)OC(C)n2cnc3c(O)nc(N)nc32)cc1 (configuration not stated),> 100 µM (inactive),> 100 µM (inactive),> 100 µM (inactive),> 100 µM (inactive),55.6 µM (inactive),> 100 µM (inactive),75.5 µM (inactive),> 100 µM (inactive),> 100 µM (inactive),> 100 µM (inactive),> 100 µM (inactive),> 100 µM (inactive),> 100 µM (inactive),> 100 µM (inactive),> 100 µM (inactive),88.7 µM (inactive),48.4 µM (inactive),18.1 µM (inactive),> 100 µM (inactive),> 100 µM (inactive)
O=C1CSC(c2ccccc2O)N1c1ccc2c(c1)Oc1c(Cl)c3c(c(Cl)c1=N2)Oc1cc(N2C(=O)CSC2c2ccccc2O)ccc1N=3 (configuration not stated),,43 µM (inactive),54.7 µM (inactive),23.7 µM (inactive),24.5 µM (inactive),27.4 µM (inactive),58.3 µM (inactive),64.7 µM (inactive),> 100 µM (inactive),> 100 µM (inactive),53.3 µM (inactive),37.9 µM (inactive),73.6 µM (inactive),17.1 µM (inactive),40.1 µM (inactive),33.3 µM (inactive),81.1 µM (inactive),> 100 µM (inactive),> 100 µM (inactive),> 100 µM (inactive)
NC(=O)Cc1nc2c(N)ncnc2n1C1OC(CO)C(O)C1O (configuration not stated),> 100 µM (inactive),> 100 µM (inactive),> 100 µM (inactive),> 100 µM (inactive),> 100 µM (inactive),> 100 µM (inactive),> 100 µM (inactive),> 100 µM (inactive),,> 100 µM (inactive),> 100 µM (inactive),> 100 µM (inactive),> 100 µM (inactive),> 100 µM (inactive),> 100 µM (inactive),> 100 µM (inactive),> 100 µM (inactive),> 100 µM (inactive),> 100 µM (inactive),> 100 µM (inactive)
